Assay results reported in patent US9528090B2, “Differentiation of human embryonic stem cells” (Janssen Biotech, Inc., priority 2010, dated 2016).

System: human embryonic stem cells line H1
Test: Definitive endoderm differentiation of H1 cells in FBS medium (GDF8/GSK3B inhibitor) with IGF or insulin: FACS and real-time PCR
Format: cell-based
Settings: in the presence of FBS, 10-100 ng/ml, day 4
Protocol: Cells of the human embryonic stem cells line H1 (p40-p52) were seeded as single cells at a density of 100000 cells/cm^2 on MATRIGEL® (1:30 dilution) (BD Biosciences; Cat #356231)-coated dishes in MEF-CM (mouse embryonic fibroblast conditioned media) supplemented with 16 ng/ml of FGF2 (Catalog#100-18B, PeproTech, NJ) and 10 μM of Y27632 (Rock inhibitor, Catalogue#Y0503, Sigma, Mo.). 72 hrs post seeding, cultures were differentiated into definitive endoderm (DE) as follows: • a. with MCDB-131 (Catalogue#10372-019, Invitrogen, CA) medium supplemented with 0.2% FBS (Catalogue#SH30070.03, Hyclone, UT), 0.0025 g/ml sodium bicarbonate (Catalogue #S3187, Sigma, Mo.), 1× GlutaMax™ (Catalogue #35050-079, Invitrogen, Ca) and 100 ng/ml GDF8 (Catalogue#120-00, PeproTech, NJ) plus 2.5 μM of the GSK3B inhibitor 14-Prop-2-en-1-yl-3,5,7,14,17,23,27-heptaazatetracyclo[19.3.1.1˜2,6˜0.1˜8,12˜]heptacosa-1(25),2(27),3,5,8(26),9,11,21,23-nonaen-16-one for one day, then • b. MCDB-131 medium supplemented with FBS, sodium bicarbonate, Glutamax, and 100 ng/ml GDF8 for an additional three days.
0.5% FBS was used for day 2 and 2% FBS was used for days 3-4. Besides regular FBS, heat treated FBS (Catalogue#F4135, Sigma, Mo.) and charcoal stripped treated FBS (Catalogue#F6765, Sigma, Mo.) were also tested. Some of the FBS treated cultures were also treated with various concentrations of IGF (10-100 ng/ml) or insulin (10-100 ng/ml).
At day 4, samples were collected for analysis by FACS and real-time PCR.

insulin
expression of the pluripotency marker NANOG: upregulated | markers associated with definitive endoderm such as SOX17 and CCXR4: dose dependently down regulated
